Results: patent US10005767B2, “Compositions and methods for inhibition of the JAK pathway” (Rigel Pharmaceuticals, Inc., priority 2009, dated 2018)
pIC50: −log10 of the molar value.

The molecules below were run on human primary T-cells, IL-2 stimulated proliferation (JAK-1 and JAK-3 dependent; reported as JAK3 activity) (assay: Human primary T-cell proliferation stimulated by IL-2 (Example 3)). Conditions: Homo sapiens, T-cell, tested under conditions described in Example 3 (IL-2 stimulated human primary T-cell proliferation); read-out: ability to inhibit JAK3 activity, IC50 range (Table V).
Format: cell-based
Excerpt: The activity of the compounds described herein can further be characterized by assaying the effect of the 2,4-pyrimidinediamine compounds described herein on the proliferative response of primary human T-cells. In this assay, primary human T-cells derived from peripheral blood and pre-activated through stimulation of the T-cell receptor and CD28, proliferate in culture in response to the cytokine Interleukin-2 (IL-2). This proliferative response is dependent on the activation of JAK1 and JAK3 tyrosine kinases, which phosphorylate and activate the transcription factor Stat-5. The primary human T-cells are incubated with the 2,4-pyrimidinediamine compounds in the presence of IL-2 for 72 hours, and at the assay endpoint intracellular ATP concentrations are measured to assess cell viability. A reduction in cell proliferation compared to control conditions is indicative of inhibition of the JAK kinase pathway.
Primary human T-cells derived from peripheral blood and pre-activated through stimulation of the T-cell receptor and CD28, proliferate in vitro in response to the cytokine Interleukin-2 (IL-2). This proliferative response is dependent on the activation of JAK-1 and JAK-3 tyrosine kinases, which phosphorylate and activate the transcription factor Stat-5.
Human primary T cells were prepared as follows. […] The lymphocytes at the serum: ficoll interface were recovered and washed twice with 5 volumes of PBS. […] The primary T-cells were stimulated for 3-4 days, then transferred to a fresh flask and maintained in RPMI with 10% FBS and 40 U/mL IL-2.
The day prior to the assay set up, primary T-cells were centrifuged and resuspended in fresh RPMI with 10% FBS but without IL-2 and starved overnight. For the assay, the primary T-cells were centrifuged and resuspended Yssel's medium at 2×10^6 cells/mL. 50 μL of cell suspension containing 80 U/mL IL-2 was added to each well of a flat bottom 96 well black plate. For the unstimulated control, IL-2 was omitted from the last column on the plate. […] 50 μL of 2× compound was added per well in duplicate and the cells were allowed to proliferate for 72 hours at 37° C.
Proliferation was measured using CellTiter-Glo® Luminescent Cell Viability Assay (Promega), which determines the number of viable cells in culture based on quantitation of the ATP present, as an indicator of metabolically active cells. The substrate was thawed and allowed to come to ambient temperature. After mixing the Cell Titer-Glo reagent and diluent together, 100 μL was added to each well. The plates were mixed on an orbital shaker for two minutes to induce lysis and incubated at ambient temperature for an additional ten minutes to allow the signal to equilibrate.
The compound designations in Table V are consistent with those of Tables I-IV above.

`Cc1cnc(Nc2ccc(N3C[C@@H](C)N(C)C[C@@H]3C)nc2)nc1Nc1ccc2oc(=O)[nH]c2c1` (relative stereo) [II-129, 5-methyl-N4-(2-oxo-2,3-dihydro-1,3-benzoxazol-5-yl)-N2-[2-(trans-2,4,5-trimethylpiperazino)pyridin-5-yl]-2,4-pyrimidinediamine] and `Cc1cnc(Nc2ccc(N3C[C@@H](C)NC[C@@H]3C)nc2)nc1Nc1ccc2oc(=O)[nH]c2c1` (relative stereo) [II-130, N2-[2-(trans-2,5-dimethylpiperazino)pyridin-5-yl]-5-methyl-N4-(2-oxo-2,3-dihydro-1,3-benzoxazol-5-yl)-2,4-pyrimidinediamine] cannot be ordered by pIC50: > 6.30 for the first, > 6.30 for the second.

First: Cc1cnc(Nc2cccc(C=O)c2)nc1Nc1ccc2oc(=O)[nH]c2c1 [Compound I-1, N4-(benzo[d]oxazol-2(3H)-on-5-yl)-N2-(3-formylphenyl)-5-methylpyrimidine-2,4-diamine]
Second: Cc1cnc(Nc2ccc(C=O)cc2)nc1Nc1ccc2oc(=O)[nH]c2c1 [Compound I-4, N4-(benzo[d]oxazol-2(3H)-on-5-yl)-N2-(4-formylphenyl)-5-methylpyrimidine-2,4-diamine]
The pIC50 of the first is lower: 5.30 to 6.30 for the first, > 6.30 for the second. The second is the more potent here.

`Cc1cnc(Nc2cccc(C(N)=O)c2)nc1Nc1ccc2oc(=O)[nH]c2c1` [Compound I-2, N4-(benzo[d]oxazol-2(3H)-on-5-yl)-N2-(3-aminocarbonylphenyl)-5-methylpyrimidine-2,4-diamine] and `Cc1cnc(Nc2ccc(C(N)=O)cc2)nc1Nc1ccc2oc(=O)[nH]c2c1` [Compound I-3, N4-(benzo[d]oxazol-2(3H)-on-5-yl)-N2-(4-aminocarbonylphenyl)-5-methylpyrimidine-2,4-diamine] cannot be ordered by pIC50: > 6.30 for the first, > 6.30 for the second.

First: Cc1cc(Nc2ncc(C)c(Nc3ccc4oc(=O)[nH]c4c3)n2)ccc1N1CC2(C)CN(C)CC(C)(C1)C2 [Compound I-5, N4-(benzo[d]oxazol-2(3H)-on-5-yl)-N2-(3-methyl-4-(1,5,7-trimethyl-3,7-diazabicyclo[3.3.1]nonan-3-yl)phenyl)-5-methylpyrimidine-2,4-diamine]
Second: Cc1cnc(Nc2ccc(N3CC4(C)CN(C)CC(C)(C3)C4)c(F)c2)nc1Nc1ccc2oc(=O)[nH]c2c1 [Compound I-6, N4-(benzo[d]oxazol-2(3H)-on-5-yl)-N2-(3-fluoro-4-(1,5,7-trimethyl-3,7-diazabicyclo[3.3.1]nonan-3-yl)phenyl)-5-methylpyrimidine-2,4-diamine]
The pIC50 of the first is lower: 5.30 to 6.30 for the first, > 6.30 for the second. The second is the more potent here.

Compared with `NS(=O)(=O)c1ccc(Nc2ncc(F)c(Nc3ccc4[nH]c(=O)[nH]c4c3)n2)cc1` [Compound I-13, 5-(5-fluoro-2-(4-aminosulfonylphenylamino)pyrimidin-4-ylamino)-1H-benzo[d]imidazol-2(3H)-one], `O=c1[nH]c2cc(Nc3nc(Nc4cccc(S(=O)(=O)N5CCOCC5)c4)ncc3F)ccc2o1` [Compound I-31, N4-(benzo[d]oxazol-2(3H)-on-5-yl)-N2-(3-(morpholinosulfonyl)phenyl)-5-fluoropyrimidine-2,4-diamine] is higher in pIC50: 5.30 to 6.30 for the first, > 6.30 for the second.

`Cc1cnc(Nc2cccc(C#N)c2)nc1Nc1ccc2oc(=O)[nH]c2c1` [Compound I-26, N4-(benzo[d]oxazol-2(3H)-on-5-yl)-N2-(3-cyanophenyl)-5-methylpyrimidine-2,4-diamine] and `Cc1cnc(Nc2ccc(C#N)cc2)nc1Nc1ccc2oc(=O)[nH]c2c1` [Compound I-27, N4-(benzo[d]oxazol-2(3H)-on-5-yl)-N2-(4-cyanophenyl)-5-methylpyrimidine-2,4-diamine] cannot be ordered by pIC50: > 6.30 for the first, > 6.30 for the second.

`Cc1cnc(Nc2cccc(S(=O)(=O)N3CCOCC3)c2)nc1Nc1ccc2oc(=O)[nH]c2c1` [Compound I-30, N4-(benzo[d]oxazol-2(3H)-on-5-yl)-N2-(3-(morpholinosulfonyl)phenyl)-5-methylpyrimidine-2,4-diamine] was tested, and the pIC50 was > 6.30.

Same assay, conditions: tested under conditions described in Example 3 (IL-2 stimulated human primary T-cell proliferation); read-out: ability to inhibit JAK3 activity, IC50 range (Table V)

`CCCn1c(=O)oc2ccc(Nc3nc(Nc4cccc(S(C)(=O)=O)c4)ncc3C)cc21` [Compound I-7, N4-(3-n-propylbenzo[d]oxazol-2(3H)-on-5-yl)-N2-((3-methylsulfonyl)phenyl)-5-methylpyrimidine-2,4-diamine] and `Cc1cnc(Nc2cccc(S(C)(=O)=O)c2)nc1Nc1ccc2oc(=O)n(C(C)C)c2c1` [Compound I-9, N4-(3-isopropylbenzo[d]oxazol-2(3H)-on-5-yl)-N2-((3-methylsulfonyl)phenyl)-5-methylpyrimidine-2,4-diamine] cannot be ordered by pIC50: > 6.30 for the first, > 6.30 for the second.

`CCCn1c(=O)oc2ccc(Nc3nc(Nc4ccc(NS(C)(=O)=O)cc4)ncc3C)cc21` [Compound I-8, N4-(3-n-propylbenzo[d]oxazol-2(3H)-on-5-yl)-N2-((4-methylsulfonylamino)phenyl)-5-methylpyrimidine-2,4-diamine] and `Cc1cnc(Nc2ccc(NS(C)(=O)=O)cc2)nc1Nc1ccc2oc(=O)n(C(C)C)c2c1` [Compound I-10, N4-(3-isopropylbenzo[d]oxazol-2(3H)-on-5-yl)-N2-((4-methylsulfonylamino)phenyl)-5-methylpyrimidine-2,4-diamine] cannot be ordered by pIC50: > 6.30 for the first, > 6.30 for the second.

`Cc1cnc(Nc2cccc(S(N)(=O)=O)c2)nc1Nc1ccc2[nH]c(=O)[nH]c2c1` [Compound I-11, N4-(benzimidazolin-2-on-5-yl)-N2-((3-aminosulfonyl)phenyl)-5-methylpyrimidine-2,4-diamine] and `Cc1cnc(Nc2cccc(S(C)(=O)=O)c2)nc1Nc1ccc2[nH]c(=O)[nH]c2c1` [Compound I-22, N4-(benzimidazolin-2-on-5-yl)-N2-(3-methylsulfonyl)phenyl-5-methylpyrimidine-2,4-diamine] cannot be ordered by pIC50: > 6.30 for the first, > 6.30 for the second.

Compared with `Cc1cnc(Nc2ccc(S(N)(=O)=O)cc2)nc1Nc1ccc2[nH]c(=O)[nH]c2c1` [Compound I-12, N4-(benzimidazolin-2-on-5-yl)-N2-((4-aminosulfonyl)phenyl)-5-methylpyrimidine-2,4-diamine], `Cc1cnc(Nc2ccc(S(N)(=O)=O)cc2)nc1Nc1ccc2oc(=O)[nH]c2c1` [Compound I-15] is higher in pIC50: < 5.00 for the first, > 6.30 for the second. The second is the more potent here.

`Cc1cnc(Nc2cccc(S(N)(=O)=O)c2)nc1Nc1ccc2oc(=O)[nH]c2c1` [Compound I-14] and `Cc1cnc(Nc2cccc(S(C)(=O)=O)c2)nc1Nc1ccc2oc(=O)[nH]c2c1` [Compound I-16] cannot be ordered by pIC50: > 6.30 for the first, > 6.30 for the second.

`Cc1cnc(Nc2ccc(S(C)(=O)=O)cc2)nc1Nc1ccc2oc(=O)[nH]c2c1` [Compound I-17] and `CS(=O)(=O)c1ccc(Nc2ncc(F)c(Nc3ccc4oc(=O)[nH]c4c3)n2)cc1` [Compound I-21] cannot be ordered by pIC50: > 6.30 for the first, > 6.30 for the second.

`NS(=O)(=O)c1cccc(Nc2ncc(F)c(Nc3ccc4oc(=O)[nH]c4c3)n2)c1` [Compound I-18] and `CS(=O)(=O)c1cccc(Nc2ncc(F)c(Nc3ccc4oc(=O)[nH]c4c3)n2)c1` [Compound I-20] cannot be ordered by pIC50: > 6.30 for the first, > 6.30 for the second.

First: NS(=O)(=O)c1ccc(Nc2ncc(F)c(Nc3ccc4oc(=O)[nH]c4c3)n2)cc1 [Compound I-19]
Second: CS(=O)(=O)c1ccc(Nc2ncc(F)c(Nc3ccc4[nH]c(=O)[nH]c4c3)n2)cc1 [Compound I-23, N4-(benzimidazolin-2-on-5-yl)-N2-(4-methylsulfonyl)phenyl-5-fluoropyrimidine-2,4-diamine]
The pIC50 of the first is higher: > 6.30 for the first, < 5.00 for the second. The first is the more potent here.

`Cc1ccc(Nc2ncc(C)c(Nc3ccc4oc(=O)[nH]c4c3)n2)cc1S(N)(=O)=O` [Compound I-24, N4-(benzo[d]oxazol-2(3H)-on-5-yl)-N2-((3-aminosulfonyl-4-methyl)phenyl)-5-methylpyrimidine-2,4-diamine] and `Cc1cnc(Nc2cccc(S(=O)(=O)NC(C)(C)C)c2)nc1Nc1ccc2oc(=O)[nH]c2c1` [Compound I-25, N4-(benzo[d]oxazol-2(3H)-on-5-yl)-N2-((3-tert-butylaminosulfonyl)phenyl)-5-methylpyrimidine-2,4-diamine] cannot be ordered by pIC50: > 6.30 for the first, > 6.30 for the second.

Compared with `Cc1cnc(Nc2cccc(C#N)c2)nc1Nc1ccc2[nH]c(=O)[nH]c2c1` [Compound I-28, N4-(benzimidazolin-2-on-5-yl)-N2-(3-cyanophenyl)-5-methylpyrimidine-2,4-diamine], `Cc1cnc(Nc2ccc(C#N)cc2)nc1Nc1ccc2[nH]c(=O)[nH]c2c1` [Compound I-29, N4-(benzimidazolin-2-on-5-yl)-N2-(4-cyanophenyl)-5-methylpyrimidine-2,4-diamine] is lower in pIC50: > 6.30 for the first, < 5.00 for the second. The first is the more potent here.
